One compound from patent publication US11813350B2, “Composition for the treatment of rosacea and/or telangiectasia” (NAOS INSTITUTE OF LIFE SCIENCE, priority 2020, dated 2023) can be followed below.

Each structure is given as a SMILES string.

The subject of this assay is KLK-5. Kind of assay: Inhibition of the synthesis of KLK-5 secreted by normal human keratinocytes in an environment mimicking rosacea (IL-17 + Vit. D induction, ELISA on supernatants, normalized to MTT cell viability). The format is cell-based. Conditions: Keratinocyte, NHK, 48 hours, induced with IL-17 10 ng/ml + Vit. D 10-7 mol/L, 1 mM calcium, positive control. The method, then:
NHKs originating from LONZA (France) were used in this study.
The culture conditions are as follows: • Cell type: NHK donor PP12 • Culture medium: KBM+Lonza supplements=KGM • Seeding density: 15,000 cells/well in 96-well plates with 100 μl of medium.
The conditions for induction of the synthesis of KLK-5 are as follows: • Presence of 1 mM of calcium • Inducer mix: (see Table 1) IL-17 at 10 ng/ml+Vit. D at 10-7 mol/L • Processing time: 48 hours • Positive control of induced KLK5 inhibition: Dexamethasone at 1 μM
The quantification of KLK-5 in the supernatants is carried out using an Enzyme Linked Immunosorbent Assay (ELISA) (Ref: DY8459-05, R&D Systems, France) with the reagents recommended by the manufacturer (DuoSet Ancillary Reagent Kit 2, Ref: DY008, R&D Systems, France) and used according to the manufacturer's instructions.
The optical density (OD) is read with a spectrophotometer at 450 nm. The concentration of KLK-5 is calculated from the standard range (15.6 to 1000 pg/ml) established with the recombinant human protein of KLK-5.
A dilution of the supernatants to 1/50th is mandatory so that the samples are not out of range. […]
MTT is a soluble yellow dye which is metabolized by mitochondrial enzymes (succinate dehydrogenase) into a dark blue compound: formazan. The formazan crystals are then dissolved in DMSO then the optical density is measured spectrophotometrically at 540 nm. […]

Regarding `C[C@@H]1C[C@H]2[C@@H]3CCC4=CC(=O)C=C[C@]4(C)[C@@]3(F)[C@@H](O)C[C@]2(C)[C@@]1(O)C(=O)CO` [dexamethasone], the inhibition at 1 µM came out at 16.6%.
